Results on five substances are retold here after PMC7032632 (Experimental eye research, 2019).

For orientation: EC50 means the concentration at which the effect is half-maximal. Read a high EC50 as lower potency in that assay.

In experiment [1] the test system is choroidal neovascularization (CNV). To be noted: mouse, day 0 IVT injection; ref Wang et al., 2012; cited from earlier work.
For experiment [2], the system named is VEGF-activated endothelial cells (primary human dermal microvascular EC). The class given is cell-based. To be noted: 48 h.
Experiment [3] concerns cells presenting 67LR. To be noted: ref Gopalakrishna et al., 2018; Yu et al., 2009; cited from earlier work.

Ends that are not written are not given here.

For the substance “Ac-GV-d-alloIle-Ser-Q-I-R-Pro-ethylamide [ABT-898]”, the “laser-induced CNV, IVT injection” value in experiment [1] is “mitigate laser-induced CNV”.

For the substance Ac-GYDLYRV-NH2 [PEDF 862], the response in experiment [2] was half-maximal at 30 nM (EC50). That is a double-digit nanomolar value.

Consider Ac-GYDLYRVRS-NH2 [PEDF 860], for which the concentration giving a half-maximal response (EC50) in experiment [2] is 60 nM. This EC50 is about 2-fold higher than that of the substance before.

With NFGYDLYRVRSSMSPTTN [PEDF P18], the 50% effective concentration (EC50) in experiment [2] is 10 nM.

For the substance YIGSR, in experiment [3], the “activity range in cells presenting 67LR” value was 2 to 20 µM.
